Laboratory results: patent US20120046308A1, “NOVEL ALPHA-PHENOXYBENZENEACETIC ACID DERIVATIVE AND PHARMACEUTICAL PREPARATION COMPRISING SAME” (KOWA COMPANY, LTD., priority 2009, published 2012)
Like-named read-outs stand apart in the source and are kept apart here.

What was measured:
[1] = target: T1, angiotensin II type 1 receptor (Oryctolagus cuniculus, UniProt P34976); test: Angiotensin II antagonistic activity in isolated rabbit blood vessels (thoracic aorta ring contraction); conditions: angiotensin II (10 nM)-induced contraction
T1 construct: By using a specimen of isolated rabbit blood vessels; from tissue; host or cells: rabbit (New Zealand White) thoracic aorta ring
T1 sequence (P34976 1-359): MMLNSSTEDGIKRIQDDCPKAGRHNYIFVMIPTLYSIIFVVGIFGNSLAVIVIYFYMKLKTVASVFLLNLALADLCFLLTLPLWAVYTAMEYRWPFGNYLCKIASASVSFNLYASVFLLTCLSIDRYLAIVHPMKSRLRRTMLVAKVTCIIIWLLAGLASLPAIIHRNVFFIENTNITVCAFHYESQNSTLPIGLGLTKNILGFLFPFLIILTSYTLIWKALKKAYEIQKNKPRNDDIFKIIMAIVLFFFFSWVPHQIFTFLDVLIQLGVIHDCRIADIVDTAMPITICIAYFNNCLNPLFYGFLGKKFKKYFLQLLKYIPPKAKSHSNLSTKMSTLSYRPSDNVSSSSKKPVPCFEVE
Description: By using a specimen of isolated rabbit blood vessels, antagonistic activity of the compounds of the invention against angiotensin II type 1 receptor was estimated from a dose-response curve of angiotensin II-induced blood vessel contraction.
During the measurement, the inside temperature of the magnus bath was maintained at 37° C. and the bath was continuously ventilated with a sufficient amount of mixed gas (95% O2 and 5% CO2). The angiotensin II-induced contraction was converted into a relative value (%) that is based on the angiotensin II (10 nM)-induced contraction in the absence of the compounds of each example. From the concentration-response curve obtained therefrom, 50% inhibition concentration (IC50 value) was calculated by using SAS Preclinical Package Ver5.0 (trade name, manufactured by SAS institute Japan Co., Tokyo, Japan), which is a statistical analysis program.

human PPARγ2 [2] = target: T2, human PPARγ2 (Homo sapiens, UniProt P37231); test: PPARγ activation activity, Gal4-PPARγ2 LBD luciferase transfection assay using COS7 cells; format: cell-based; conditions: maximum activity relative to rosiglitazone
T2 construct: the amino acids 182 to 505 of human PPARγ2; expressed in transfected cells; host or cells: COS7 cells (African green monkey kidney)
T2 sequence (P37231 182-505): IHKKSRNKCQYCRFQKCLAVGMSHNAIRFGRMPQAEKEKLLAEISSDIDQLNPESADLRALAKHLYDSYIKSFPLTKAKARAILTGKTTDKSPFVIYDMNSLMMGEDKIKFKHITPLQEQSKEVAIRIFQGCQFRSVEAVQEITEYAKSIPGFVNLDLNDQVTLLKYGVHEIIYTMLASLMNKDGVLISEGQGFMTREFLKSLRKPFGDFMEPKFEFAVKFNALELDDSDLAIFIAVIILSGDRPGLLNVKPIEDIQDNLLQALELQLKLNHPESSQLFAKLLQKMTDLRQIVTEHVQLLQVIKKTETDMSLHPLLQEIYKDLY

human PPARγ2 [3] = target: T2, human PPARγ2; test: as above; format: cell-based; conditions: for EC50: 16 hours, luciferase activity relative to rosiglitazone = 100%; for Emax: COS-7, 16 h, maximum activity strength relative to the maximum activity of rosiglitazone, read-out: % MAX vs Rosiglitazone
Description: The agonistic activity of the compounds of the invention on PPARγ was measured based on the transfection assay using COS7 cells (DS Pharma Biomedical Co., Ltd., Osaka, Japan), which are the cell line derived from the kidney of the African green monkey. COS7 cells were cultured under 5% CO2 concentration, and DMEM medium containing 10% fetal bovine serum, glutamic acid, and antibiotics was used as a medium.
As an expression vector, a chimera in which DNA binding domain of Gal4, which is a yeast transcription factor, and ligand binding domain of human PPARγ2 are fused, i.e., a fused product between the amino acids 1 to 147 of Gal4 transcription factor and the amino acids 182 to 505 of human PPARγ2, was used. Furthermore, as a reporter vector, a firefly luciferase containing five copies of Gal4 recognition sequence in the promoter region was used. Plasmid transfection to the cells was performed according to a method which uses jetPEI (trade name, manufactured by Funakoshi Co., Ltd., Tokyo, Japan). Furthermore, β-galactosidase expression vector was employed as an internal standard.
After the transfection of the cells, the medium was replaced with a DMEM medium (containing 1% serum) added with the compound, and the cells were further cultured for 16 hours. After that, the luciferase activity and β-galactosidase activity in the cell lysis solution were measured.
For the present test, dimethyl sulfoxide (DMSO) was used for dissolution and dilution of the test compounds, and during the cell treatment, the DMSO concentration in DMEM medium (containing 1% serum) was adjusted to 0.1%. As a positive compound, rosiglitazone (trade name, manufactured by ALEXIS Corporation, Switzerland) was used. The luciferase activity (%) of the test compounds (1 to 30 μmol/L) was calculated when the luciferase activity of rosiglitazone (3 to 10 μmol/L) is 100% and the luciferase activity in the absence of the test compound is 0%. The 50% effective concentration of the test compound (EC50, 50% effect concentration) was calculated by using SAS Preclinical Package Ver5.0 (trade name, manufactured by SAS institute Japan Co., Tokyo, Japan), which is a statistical analysis program.

Row | SMILES | IC50 [1] [nM] | EC50 (human PPARγ2 [3]; COS7 cells, read-out: EC50) [nM] | Emax (human PPARγ2 [3]) [%] | maximum activity compared with that of termisartan (human PPARγ2 [2]) | EC50 (human PPARγ2 [3]; EC50, COS7 cells) [nM]
1 | CCCCc1nc(C)n(-c2ncc(OCCCC(N)=O)cn2)c(=O)c1Cc1cc(CCC)c(OC(C(=O)O)c2ccccc2)c(CCC)c1 (stereo not drawn) [Example 23] | 67 |  |  |  | 
2 | CCCCc1nc(C)n(CCOC)c(=O)c1Cc1cc(CCC)c(OC(C(=O)O)c2ccccc2)c(CCC)c1 (stereo not drawn) [Example 33, 2-[4-[{4-butyl-1-(2-methoxyethyl)-2-methyl-6-oxo-1,6-dihydropyrimidin-5-yl}methyl]-2,6-dipropylphenoxy]-2-phenylacetic acid] | 250 | 2670 |  |  | 
3 | CCCCc1nc(C)n(-c2ncc(OCC[S+](C)[O-])cn2)c(=O)c1Cc1cc(CCC)c(OC(C(=O)O)c2ccccc2)c(CCC)c1 (stereo not drawn) [Example 25] | 76 |  |  |  | 
4 | CCCCc1nc(C)n(CC2CCCCC2)c(=O)c1Cc1cc(CCC)c(OC(C(=O)O)c2ccccc2)c(CCC)c1 (stereo not drawn) [Example 30, 2-[4-[(4-butyl-1-(cyclohexylmethyl)-2-methyl-6-oxo-1,6-dihydropyrimidin-5-yl}methyl]-2,6-dipropylphenoxy]-2-phenylacet ic acid] | 836 | 280 | 28.5 |  | 
5 | CCCCc1nc(C)n(-c2ncc(OCCS(C)(=O)=O)cn2)c(=O)c1Cc1cc(CCC)c(OC(C(=O)O)c2ccccc2)c(CCC)c1 (stereo not drawn) [Example 26, 2-[4-[[4-butyl-2-methyl-1-[5-{2-(methylsulfonyl)ethoxy}pyrimidin-2-yl]-6-oxo-1,6-dihydropyrimidin-5-yl]methyl]-2,6-dipropylphenoxy]-2-phenylacetic acid] | 353 |  |  |  | 
6 | CCCc1nc2c(C)cc(-c3nc4ccccc4n3C)cc2n1Cc1ccc(-c2ccccc2C(=O)O)cc1 [telmisartan, reference compound] | 25 |  | 30 to 50 |  | 1000 to 5000
7 | CCCCc1nc(C)n(-c2ncc(OCC)cn2)c(=O)c1Cc1cc(CCC)c(OC(C(=O)O)c2ccccc2)c(CCC)c1 (stereo not drawn) [Example 20] | 115 | 2590 | 58.6 |  | 
8 | CCCCc1nc(C)n(Cc2ccccc2)c(=O)c1Cc1cc(CCC)c(OC(C(=O)O)c2ccccc2)c(CCC)c1 (stereo not drawn) [Example 28, 2-[4-{(1-benzyl-4-butyl-2-methyl-6-oxo-1,6-dihydropyrimidin-5-yl)methyl}-2,6-dipropylphenoxy]-2-phenylacetic acid] | 724 | 850 | 21.3 |  | 
9 | CCCCc1nc(C)n(-c2ncc(OCCSC)cn2)c(=O)c1Cc1cc(CCC)c(OC(C(=O)O)c2ccccc2)c(CCC)c1 (stereo not drawn) [Example 24, 2-[4-[[4-butyl-2-methyl-1-[5-{2-(methylthio)ethoxy}pyrimidin-2-yl]-6-oxo-1,6-dihydropyrimidin-5-yl]methyl]-2,6-dipropylphenoxy]-2-phenylacetic acid] |  | 1340 | 39.8 |  | 
10 | CCCCc1nc(C)n(-c2ccc(OCc3ccccc3)cc2)c(=O)c1Cc1cc(CCC)c(OC(C(=O)O)c2ccccc2)c(CCC)c1 (stereo not drawn) [Example 12, 2-[4-[[1-{4-(benzyloxy)phenyl}-4-butyl-2-methyl-6-oxo-1,6-dihydropyrimidin-5-yl]methyl]-2,6-dipropylphenoxy]-2-phenyla cetic acid] |  | 440 | 57.5 | equal to or more than that of termisartan | 
11 | CCCCc1nc(C)n(-c2ccccn2)c(=O)c1Cc1cc(CCC)c(OC(c2nnn[nH]2)c2ccccc2Cl)c(CCC)c1 (stereo not drawn) [Example 11, 6-butyl-5-[4-{(2-chlorophenyl)(1H-tetrazol-5-yl)methoxy}-3,5-dipropylbenzyl]-2-methyl-3-(pyridin-2-yl)pyrimidin-4(3H)-one] |  | 2630 |  |  | 
12 | CCCCc1nc(C)n(-c2ccccn2)c(=O)c1Cc1cc(CCC)c(OC(c2ccccc2)c2nnn[nH]2)c(CCC)c1 (stereo not drawn) [Example 4, 6-butyl-2-methyl-5-[4-{phenyl(1H-tetrazol-5-yl)methoxy}-3,5-dipropylbenzyl]-3-(pyridin-2-yl)pyrimidin-4(3H)-one] |  | 1720 |  |  | 

Continued, in another order:

Row | IC50 [1] [nM] | EC50 (human PPARγ2 [3]; COS7 cells, read-out: EC50) [nM] | Emax (human PPARγ2 [3]) [%] | SMILES | maximum activity compared with that of termisartan (human PPARγ2 [2]) | EC50 (human PPARγ2 [3]; EC50, COS7 cells) [nM]
13 | 92 | 2710 | 47.2 | CCCCc1nc(C)n(-c2ncc(OC)cn2)c(=O)c1Cc1cc(CCC)c(OC(C(=O)O)c2ccccc2)c(CCC)c1 (stereo not drawn) [Example 15] | equal to or more than that of termisartan | 
14 |  | 600 | 63 | CCCCc1nc(C)n(-c2ccc(OC(C)C)cc2)c(=O)c1Cc1cc(CCC)c(OC(C(=O)O)c2ccccc2)c(CCC)c1 (stereo not drawn) [Example 14] | equal to or more than that of termisartan | 
15 | 530 | 3070 | 32 | CCCCc1nc(C)n(-c2ccccn2)c(=O)c1Cc1cc(CCC)c(OC(C(=O)O)c2ccccc2)c(CCC)c1 (stereo not drawn) [Example 1, 2-[4-[{4-butyl-2-methyl-6-oxo-1-(pyridin-2-yl)-1,6-dihydropyrimidin-5-yl}methyl]-2,6-dipropylphenoxy]-2-phenylacetic acid] |  | 
16 | 468 |  |  | CCCCc1nc(C)n(-c2ncc(O)cn2)c(=O)c1Cc1cc(CCC)c(OC(C(=O)O)c2ccccc2)c(CCC)c1 (stereo not drawn) [Example 27, 2-[4-[{4-butyl-1-(5-hydroxypyrimidin-2-yl)-2-methyl-6-oxo-1,6-dihydropyrimidin-5-yl}methyl]-2,6-dipropylphenoxy]-2-phe nylacetic acid] |  | 
17 |  | 540 | 47 | CCCCc1nc(C)n(-c2ccccn2)c(=O)c1Cc1cc(CCC)c(OC(C(=O)O)c2ccc(Cl)cc2)c(CCC)c1 (stereo not drawn) [Example 9] | equal to or more than that of termisartan | 
18 | 58 | 1460 | 44.4 | CCCCc1nc(C)n(-c2ncc(OC)cn2)c(=O)c1Cc1cc(CCC)c(OC(C(=O)O)c2ccccc2)c(CCC)c1 (single isomer, unassigned; (-)) [Example 16, (−)-2-[4-[{4-butyl-1-(5-methoxypyrimidin-2-yl)-2-methyl-6-oxo-1,6-dihydropyrimidin-5-yl}methyl]-2,6-dipropylphenoxy]-2-phenylacetic acid] |  | 
19 |  | 3710 |  | CCCCc1nc(C)n(-c2ncc(OC)cn2)c(=O)c1Cc1cc(CCC)c(OC(C(=O)O)c2ccccc2)c(CCC)c1 (single isomer, unassigned; (+)) [Example 17, (+)-2-[4-[{4-butyl-1-(5-methoxypyrimidin-2-yl)-2-methyl-6-oxo-1,6-dihydropyrimidin-5-yl}methyl]-2,6-dipropylphenoxy]-2-phenylacetic acid] |  | 
